From ChEMBL document CHEMBL1133403 (Bioorg Med Chem Lett, 2000)
The source made the active and inactive calls. The rule behind the calls is not given here.

Legend:
[1] = target: T1, Mineralocorticoid receptor (Homo sapiens, UniProt P08235); test: Cross-reactivity as binding to human mineralocorticoid receptor (hMR); NA=not active; format: functional
T1 sequence (P08235 whole entry): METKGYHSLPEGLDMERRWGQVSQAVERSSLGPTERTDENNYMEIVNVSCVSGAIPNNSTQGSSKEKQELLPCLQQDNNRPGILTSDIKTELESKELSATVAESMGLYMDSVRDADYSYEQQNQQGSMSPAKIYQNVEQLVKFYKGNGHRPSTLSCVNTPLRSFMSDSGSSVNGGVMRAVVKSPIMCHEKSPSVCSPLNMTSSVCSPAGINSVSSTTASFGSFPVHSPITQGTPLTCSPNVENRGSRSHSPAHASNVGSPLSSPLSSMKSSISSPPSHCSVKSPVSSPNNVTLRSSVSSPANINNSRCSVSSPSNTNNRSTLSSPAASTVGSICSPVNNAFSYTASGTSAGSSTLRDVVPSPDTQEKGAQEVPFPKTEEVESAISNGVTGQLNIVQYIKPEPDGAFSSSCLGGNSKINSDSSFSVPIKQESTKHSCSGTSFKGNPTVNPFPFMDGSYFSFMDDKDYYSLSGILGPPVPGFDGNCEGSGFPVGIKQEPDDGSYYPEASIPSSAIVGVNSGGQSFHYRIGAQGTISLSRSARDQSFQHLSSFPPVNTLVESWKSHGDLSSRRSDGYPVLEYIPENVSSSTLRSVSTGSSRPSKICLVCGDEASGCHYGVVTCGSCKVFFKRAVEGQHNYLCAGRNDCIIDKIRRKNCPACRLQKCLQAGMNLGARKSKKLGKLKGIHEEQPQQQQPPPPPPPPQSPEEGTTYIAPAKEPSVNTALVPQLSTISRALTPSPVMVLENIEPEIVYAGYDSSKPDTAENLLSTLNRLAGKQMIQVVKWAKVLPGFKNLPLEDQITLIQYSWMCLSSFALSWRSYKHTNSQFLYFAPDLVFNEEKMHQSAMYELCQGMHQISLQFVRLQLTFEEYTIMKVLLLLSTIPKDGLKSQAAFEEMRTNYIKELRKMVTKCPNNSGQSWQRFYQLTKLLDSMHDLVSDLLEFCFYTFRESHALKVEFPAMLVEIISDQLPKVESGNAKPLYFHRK

[2] = target: T2, Glucocorticoid receptor (Homo sapiens) (UniProt P04150); test: Percent inhibition of glucocorticoid receptor transcriptional activity at Dexamethasone EC50; NA=not active; format: functional
T2 sequence (whole entry): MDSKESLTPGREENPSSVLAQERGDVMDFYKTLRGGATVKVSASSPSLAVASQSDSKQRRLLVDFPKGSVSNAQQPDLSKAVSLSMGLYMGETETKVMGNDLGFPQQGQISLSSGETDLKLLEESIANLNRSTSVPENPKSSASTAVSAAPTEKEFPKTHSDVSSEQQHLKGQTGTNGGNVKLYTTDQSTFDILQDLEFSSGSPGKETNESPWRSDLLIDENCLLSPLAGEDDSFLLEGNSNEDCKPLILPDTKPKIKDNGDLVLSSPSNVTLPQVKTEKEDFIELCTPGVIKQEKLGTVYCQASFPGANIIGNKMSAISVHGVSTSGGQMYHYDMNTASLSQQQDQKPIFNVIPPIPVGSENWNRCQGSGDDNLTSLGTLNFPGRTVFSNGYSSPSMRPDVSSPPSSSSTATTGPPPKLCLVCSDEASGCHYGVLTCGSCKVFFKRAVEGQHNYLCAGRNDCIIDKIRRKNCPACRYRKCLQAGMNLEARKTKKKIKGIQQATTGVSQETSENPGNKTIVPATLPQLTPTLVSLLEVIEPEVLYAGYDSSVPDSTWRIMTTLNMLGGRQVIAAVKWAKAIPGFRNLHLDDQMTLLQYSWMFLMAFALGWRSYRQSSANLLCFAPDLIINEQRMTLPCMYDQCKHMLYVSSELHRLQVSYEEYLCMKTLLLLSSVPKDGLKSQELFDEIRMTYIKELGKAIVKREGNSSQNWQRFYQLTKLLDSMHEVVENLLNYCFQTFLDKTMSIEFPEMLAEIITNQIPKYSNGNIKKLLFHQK

Glucocorticoid receptor = target: T3, Glucocorticoid receptor (Homo sapiens, UniProt P04150); test: Cross-reactivity as binding to human glucocorticoid receptor (hGR); NA=not active; format: functional
T3 sequence (P04150 whole entry): T2 sequence (whole entry)

Progesterone receptor = target: T4, Progesterone receptor (Homo sapiens, UniProt P06401); test: Human progesterone receptor (hPR) agonist activity using cotransfection assay in CV-1 cells.; format: functional, cell-based
T4 sequence (P06401 whole entry): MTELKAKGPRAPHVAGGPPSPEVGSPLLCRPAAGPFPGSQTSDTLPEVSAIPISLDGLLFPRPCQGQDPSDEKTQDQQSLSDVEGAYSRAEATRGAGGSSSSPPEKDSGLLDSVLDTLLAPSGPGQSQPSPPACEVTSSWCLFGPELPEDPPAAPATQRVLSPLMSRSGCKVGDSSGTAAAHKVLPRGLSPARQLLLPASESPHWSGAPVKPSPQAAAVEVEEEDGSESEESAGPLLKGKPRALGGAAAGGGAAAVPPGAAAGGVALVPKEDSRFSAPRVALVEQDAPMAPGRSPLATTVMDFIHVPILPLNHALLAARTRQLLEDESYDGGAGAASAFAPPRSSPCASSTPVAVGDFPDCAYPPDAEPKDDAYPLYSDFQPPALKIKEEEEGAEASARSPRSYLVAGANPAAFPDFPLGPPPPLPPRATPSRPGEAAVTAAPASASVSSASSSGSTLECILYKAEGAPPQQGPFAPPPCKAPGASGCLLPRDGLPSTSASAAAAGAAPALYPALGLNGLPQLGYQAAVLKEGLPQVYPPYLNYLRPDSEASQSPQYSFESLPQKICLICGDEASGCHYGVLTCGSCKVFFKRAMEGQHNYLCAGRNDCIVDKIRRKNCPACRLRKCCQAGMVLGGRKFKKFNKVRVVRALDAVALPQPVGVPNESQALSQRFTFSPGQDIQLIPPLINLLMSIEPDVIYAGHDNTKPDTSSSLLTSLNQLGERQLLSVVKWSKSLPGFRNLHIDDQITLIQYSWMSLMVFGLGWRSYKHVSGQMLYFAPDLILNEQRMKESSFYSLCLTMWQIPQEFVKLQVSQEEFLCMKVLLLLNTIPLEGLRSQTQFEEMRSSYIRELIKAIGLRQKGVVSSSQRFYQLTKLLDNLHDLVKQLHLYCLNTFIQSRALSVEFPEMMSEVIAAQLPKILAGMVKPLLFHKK

- IC50 [1]: Not Active
- Efficacy [2]: inactive
- IC50 (Glucocorticoid receptor): Not Active
- EC50 (Progesterone receptor): Not Active
SMILES: CC1=CC(C)(C)Nc2ccc(-c3ccc([N+](=O)[O-])s3)cc21
